Patent publication US20220184092A1, “ANTI-VIRAL ACTIVITY OF VPS34 INHIBITORS” (Deciphera Pharmaceuticals, LLC, priority 2020, published 2022)
Read-outs that look alike come from different tables or passages of the source.

Experiments:
[1] = system: SARS CoV-2; experiment: SARS CoV-2 CPE assay for antiviral activity in Vero E6 host cells; type: cell-based, coronavirus USA_WA1/2020 SARS CoV-2; settings: read-out: IC50 for inhibition of SARS CoV-2 mediated cell killing
[2] = system: Vero E6 cells; experiment: in vitro; type: cell-based; settings: African green monkey, 72 h
Method: (§1) Compound cytotoxicity (CC50) is assessed in a BSL-2 counter screen as follows: Host cells in media are added in 25 μl aliquots (4000 cells/well) to each well of assay ready plates prepared with test compounds as above. […] DMSO is maintained at a constant concentration for all wells (0.3%) as dictated by the dilution factor of stock test compound concentrations. After incubating plates at 37° C./5% CO2 and 90% humidity for 72 hours, 30 μl Cell Titer-Glo (Promega) is added to each well. Luminescence is read using a BMG PHERAstar plate reader following incubation at room temperature for 10 minutes to measure cell viability.

[3] = in vitro; type: cell-based; settings: African green monkey
Method: as §1

[4] = system: SARS-CoV-2; experiment: microbe, parasite or virus in culture; type: cell-based; settings: Severe acute respiratory syndrome coronavirus 2, A549, 48 h; read-out: IC50 for inhibition of SARS CoV-2 mediated cell killing
[5] = Vero C1008, Vero E6 cells, CPE assay, 72 hours, 10-point dose response, high concentration 15 μM

| Compound | IC50 [1, 5] [µM] | CC50 [2] [µM] | CC50 at 72 h [3] [µM] | IC50 [4] [nM] | IC50 ([1]; Vero C1008, 72 h) [µM] |
| --- | --- | --- | --- | --- | --- |
| C[C@@H]1COCCN1c1cc(-c2ccccc2C(F)(F)F)[nH]c(=O)c1 [Compound 1] | 3.91 | > 30 | > 30 | 2050 | – |
| C[C@@H]1COCCN1c1cc(-c2ccccc2Cl)[nH]c(=O)c1 [Compound 2] | 2.76 | > 30 | > 30 | 830 | – |
| Cc1cscc1-c1cc(N2CCOC[C@H]2C)cc(=O)[nH]1 [Compound 3] | – | > 10 | > 10 | 6390 | > 10 |
